Read-outs that look alike come from different tables or passages of the source. *1 amine or outer side, *2 acyl side, *3 side chain or, on linkers, in order; H or OH if unused. Where a SMILES comes first, the peptide text is derived from it. Side-chain parts run from the residue outwards. [ ]: non-standard residue; d: D form. The star is where a group is joined. Ethylenediamine = C(CN[*:2])N[*:1]; Hyp = O=C(O)[C@@H]1C[C@@H](O)CN1; Phg = N[C@H](C(=O)O)c1ccccc1; CO = O=C([*:1])[*:2]; Bn = c1ccc(C*)cc1
Key:
plasma ACTH = test: Plasma ACTH, Immulite 2000 ACTH kit, pre-morning-dose samples; assay type: in vivo, human; settings: Day 15, n=18, normal <10
Method: (§1) Blood samples for serum cortisol, plasma ACTH and pharmacokinetic assessments were collected before the morning pasireotide dose on study visit days. UFC assays were conducted in two central laboratories, one in Europe and the other in the US. Serum cortisol and plasma ACTH assays were assessed centrally by one laboratory (see Supplementary Material for further details).
(§2) Plasma ACTH was assayed with the Immulite® 2000 ACTH kit (DPC, Los Angeles, CA, USA), which has a lower limit of detection of 9 pg/mL (1.98 pmol/L) and intra- and inter-assay coefficients of variation of 7.7% and 8.5%, respectively. Pasireotide plasma concentrations were measured using a validated radioimmunoassay with an LLOQ of 150 pg/mL.

sst1 = settings: cited from earlier work
[1] = HbA1c and fasting plasma glucose monitoring; assay type: in vivo, human
Method: (§3) Safety was assessed by recording all AEs, as well as by regular monitoring of vital signs, physical condition, body weight, hematology and blood chemistry. HbA1c levels were recorded at extension baseline and then every 16 weeks. HbA1c categories were: <upper limit of normal (ULN; normal defined as <5.7 %), between the ULN and 7 %, between 7 and 9 %, and over 9 %.
(§4) Patient visits occurred every 2 weeks for the first 3 months and then every 3 months for assessments of UFC, serum cortisol, plasma ACTH, hematology, blood chemistry, HbA1c, electrocardiogram (ECG) and vital signs. Patients were referred to a diabetes specialist for evaluation and appropriate management if any of the following were present: […]

sst5 = test system: sst5; set-up: method as in PMID 11980628; settings: cited from earlier work
sst3 = test system: sst3; set-up: method as in PMID 11980628; settings: cited from earlier work
[2] = test system: urinary free cortisol (UFC); settings: 15-day core study, 600 μg sc bid, cited from earlier work
[3] = test system: urinary free cortisol (UFC); test: 24-h urinary free cortisol (UFC), ECLIA after dichloromethane extraction, extension study; assay type: in vivo, human
Method: (§5) The primary efficacy outcome was the proportion of patients with normalized UFC levels after 6 months of treatment (normal UFC range: 55–276 nmol/24 h; 20–100 μg/24 h). Secondary objectives included assessment of the safety and tolerability of multiple doses of pasireotide and trough plasma concentrations of pasireotide after chronic dosing.
Patients were classified as ‘UFC responders’ if their mean UFC level at month 6 was in the normal range; as ‘UFC reducers’ if their mean UFC level at month 6 was lower than that at core study baseline but not within normal limits; and as ‘UFC non-reducers’ if their mean UFC level at month 6 was equal to or higher than that at core study baseline or if the mean UFC level at month 6 was missing. Patients who discontinued prior to month 6 were classified as non-responders.
as §1
(§6) UFC levels were measured with two 24-hour urine specimens collected in the 48 hours prior to core baseline and at study visits during the extension study. Serum cortisol was measured with electrochemiluminescence immunoassay (ECLIA), using the Elecsys® cortisol reagent kit (Roche Diagnostics, Indianapolis, IN, USA), which has a lower limit of quantification (LLOQ) of […] (0.018 μg/dL) and intra- and inter-assay coefficients of variation of 1.2% and 1.4%, respectively. UFC levels were measured with ECLIA, using the Elecsys® cortisol reagent kit with prior dichloromethane extraction to reduce the amount of cortisol metabolites and conjugates.

[4] = test system: patients with Cushing's disease; test: Electrocardiogram intervals; assay type: in vivo, human; settings: number of patients
Source text: as §4

sst2 = test system: sst2; set-up: method as in PMID 11980628; settings: cited from earlier work
serum cortisol = test: Serum cortisol, ECLIA (Elecsys), pre-morning-dose samples; assay type: in vivo, human
Method: as §1, §6

[5] = Trough plasma concentration of pasireotide, radioimmunoassay; assay type: in vivo, human; settings: for level at 4320 h: human, read-out: Ctrough, mean ± SD
Method: as §5, §1, §2

[6] = test system: patients with Cushing's disease; test: Adverse events and discontinuations in the extension study; assay type: in vivo, human
Method: as §3

[7] = at some point during the extension, of six shifted
[8] = of 16 with normal FPG at extension baseline, at some point
[9] = safety population n=19, regardless of study-drug relationship

## NCCCC[C@@H]1NC(=O)[C@@H](Cc2c[nH]c3ccccc23)NC(=O)[C@H](c2ccccc2)NC(=O)[C@@H]2C[C@@H](OC(=O)NCCN)CN2C(=O)[C@H](Cc2ccccc2)NC(=O)[C@H](Cc2ccc(OCc3ccccc3)cc2)NC1=O [pasireotide] (cyclo([Hyp]([CO-Ethylenediamine])[Phg][dW]KY(Bn)F))
Plasma ACTH
  Plasma ACTH, mean ± SD: 12.4 ± 8.9 pmol/L
sst1
  Affinity for sst1: high affinity
[1]; [7]
  Patients with HbA1c shifted to a higher category with levels <7%: three
  Patients with HbA1c shifted to between 7% and 9%: three
[1]; at some point during the extension, eight with baseline values
  Patients with post-baseline HbA1c shifted to a higher category: Six
[1]; during the extension
  Shifts to levels of HbA1c >9%: no shifts
[1]; in vivo
  Patients with an increase in fasting plasma glucose level at some point during the extension: All patients
  Patients with improved FPG levels at their last assessment: All patients
[1]; [8]
  Patients whose FPG shifted to between 100 and <126 mg/dL (5.6 to <7.0 mmol/L): six
  Patients whose FPG shifted to between 126 and <200 mg/dL (7.0 to <11.1 mmol/L): four
  Patients whose FPG shifted to ≥200 mg/dL (≥11.1 mmol/L): six
[1]; of five remaining higher
  Patients with HbA1c shifted to >ULN but <7% at last assessment: four
  Patients with HbA1c shifted to between 7% and 9% at last assessment: one
[1]; of the six shifted
  Patients remaining at a higher post-baseline HbA1c level at last assessment: Five
sst5
  Affinity for sst5: highest affinity
sst3
  Affinity for sst3: high affinity
[2]; 22/29 patients
  Proportion of patients with reduced UFC levels: 76%
[2]; five patients
  Proportion of patients with normalized UFC: 17%
[3]; Day 15, n=17, primary efficacy population, normal 55–276
  UFC, mean ± SD: 522 ± 302 nmol/24 h
[3]; Month 6, 4 of 18 patients, primary efficacy analysis, 95 % CI 6.4–47.6
  Proportion of patients with normal UFC levels (UFC responders): 22.2%
[3]; Month 6, 6 of 18 patients
  Proportion of patients with reduction in mean UFC but not to within normal range (UFC reducers): 33.3%
[3]; Month 6, 10 of 18 patients
  Proportion of patients with lower UFC than at core baseline: 56%
[3]; Month 6, n=11, primary efficacy population
  UFC, mean ± SD: 421 ± 340 nmol/24 h
[3]; Month 12, n=4, primary efficacy population
  UFC, mean ± SD: 398 ± 220 nmol/24 h
[3]; Month 24, n=4, primary efficacy population
  UFC, mean ± SD: 514 ± 456 nmol/24 h
[3]; Month 24, of four patients on study drug
  Number of patients with >50 % reduction in mean UFC from core baseline: three
[3]; Month 24, of the four patients who remained on study drug
  Number of patients with normalized UFC: one
[4]
  Newly occurring QT of 450–480 ms: One patient
  Newly occurring QTcB of 450–480 ms: another patient
  QRS interval of >110 ms (not clinically significant): one patient
sst2
  Affinity for sst2: high affinity
Serum cortisol; Day 15, n=18, normal 221–690 (09:00 h)
  Serum cortisol, mean ± SD: 698 ± 161 nmol/L
Serum cortisol; Month 6, n=11
  Serum cortisol, mean ± SD: 559 ± 300 nmol/L
[5]; Month 6, UFC non-reducers, n=1
  Ctrough: 0.0052 µg/mL
[5]; Month 6, UFC reducers, n=6, SD
  level at 4320 h: 0.0191 ± 0.0109 µg/mL
[5]; Month 6, UFC responders, n=4, LLOQ 150 pg/mL, SD
  level at 4320 h: 0.0174 ± 0.0116 µg/mL
[6]; 13/19, treatment period
  Hyperglycemia-related AEs, proportion of patients: 68%
[6]; in vivo
  Deaths during the study: No patients died
[6]; increased γ-glutamyltransferase, type 2 diabetes mellitus, both suspected drug related
  Patients with grade 4 AEs: Two
[6]; n=19
  Patients with at least one AE during the study: All patients
[6]; of 19
  Patients reporting a hyperglycemia-related adverse event: Thirteen
[6]; one of 19 patients
  Discontinuation because of AE (new-onset type 2 diabetes mellitus): 5.3%
[6]; [9]
  Adverse event: Abdominal pain: 9 (47.4) n (%)
  Adverse event: Diarrhea: 13 (68.4) n (%)
  Adverse event: Dizziness: 5 (26.3) n (%)
  Adverse event: Fatigue: 5 (26.3) n (%)
  Adverse event: Headache: 7 (36.8) n (%)
  Adverse event: Hyperglycemia: 11 (57.9) n (%)
  Adverse event: Injection-site pain: 6 (31.6) n (%)
  Adverse event: Injection-site pruritus: 5 (26.3) n (%)
  Adverse event: Nausea: 12 (63.2) n (%)
[6]; three of 19 patients, after 5–10 months
  Discontinuation because of unsatisfactory therapeutic effect: 15.8%
[6]; two of 19 patients: one increased HbA1c and glucose, one elevated UFC
  Discontinuation because of abnormal laboratory value: 10.5%
